Source: US9782361B2 (Katholieke Universiteit Leuven, priority 2011, dated 2017)

What was measured:
[1] = system: PTZ-induced seizures in zebrafish larvae; test: Zebrafish PTZ seizure assay (videotracking of larval locomotor activity); assay type: in vivo
Description: Zebrafish larvae from 7-dpf were tracked using the ViewPoint VideoTrack System for Zebrafish™ (Version 2.3.1.0, ViewPoint, France). The system consists of an infrared light source, a high-resolution digital videocamera to capture larval movements within a defined time period (30 minutes in our experimental set-up) and the software to analyze larval locomotor activity (FIG. 1).
The highest concentration tested corresponds to the previously determined MTC. Zebrafish larvae were placed in a 96-well plate (tissue culture plate, flat bottom, FALCON®, USA); one larva per well. Each row of the plate (12 wells) comprised different treatment groups. Two adjacent rows contain the same compound but received two different treatments: a) first row, embryo medium (DMSO 1%), and b) second row, PTZ 20 mM. The first two rows of the plate (vehicle control group, where vehicle was embryo medium) contained a volume of 100 μl of embryo medium (1% DMSO) per well. The following three test groups (two rows each) contained 100 μl of different concentrations of test compound in embryo medium. The larvae thus treated were incubated at room temperature in dark and quiet conditions for 1 hour. Embryo medium (100 μl) was added to the first rows of each one of the four groups. Likewise, 100 μl of PTZ 40 mM were added to the second rows of each treatment group (final concentration of PTZ: 20 mM). Thus, the movement pattern of the exposed zebrafish larvae was video-tracked and assessed in presence of embryo medium (1% DMSO) and PTZ 20 mM. Videotracking of larval movements was started 5 minutes after addition of embryo medium or PTZ to the wells and was recorded for 30 minutes. A total of 8 wells in each plate were left without larvae (medium only) as a negative control, so that each experimental parameter consisted of an average of 10 to 12 larvae. The tracker software measured three periods of 10 minutes of larvae movement. Results were registered as the average value of the total time of larvae movement during 30 minutes. The figures shown are representative of a series of two similar experiments.
All statistical analyses were performed using GraphPad Prism 5 software (GraphPad Software, Inc.). Values were presented as means±standard deviation (SD). The locomotor activity of zebrafish larvae was analyzed using one-way ANOVA followed by Dunnett's multiple comparison test. Statistically significant differences (p<0.05) between a treated group and the equivalent control groups (vehicle or PTZ) were considered indicative of decrease or increase in locomotor activity of zebrafish larvae. For mouse experiments, significant differences between estimated time intervals prior to above-mentioned seizure stages were calculated using the unpaired Student's t-test.

[2] = system: PTZ-induced seizures in mice; test: Mouse PTZ-induced seizure assay (PTZ tail vein infusion); assay type: in vivo
Description: Mice were randomly divided into groups of five animals (vehicle (where vehicle was polyethylene glycol 200 (PEG200):water 1:1) and sample). The animals were pre-warmed under an infrared lamp for 10 minutes to dilate the tail veins. They were then placed in a restrainer and the lateral tail vein was catheterized with 1-cm long, 29-gauge needle. The needle was secured to the tail with surgical tape after confirming a correct placement. The needle was attached to a 0.7-m long polyethylene tubing connected to two 2.5-ml glass syringes containing: a) sample (control vehicle or test compounds) and b) PTZ (7.5 mg/ml ddH2O). These syringes were mounted on an infusion pump (ALADOIN-1000 11 VDC, 0.75 Å, World Precision Instruments). Thus, 100 μL of control vehicle (PEG 200: ddH2O 1:1) or test compounds (turmeric oil and ar-turmerone) were IV infused at the rate of 50 μl/min for 2 minutes. Ten minutes later, mice were released from the restrainer and placed in a transparent plastic cage for observation.
PTZ was constantly infused at the rate of 150 μl/min. Seizure manifestation stages in mice were scored according to the time between the start of PTZ infusion and the following behavioral events: ear, tail and myoclonic twitch, forelimb clonus, falling, tonic hindlimb extension and death (28). Behavior was observed up to 5 minutes of PTZ infusion. In case of any surviving mice, they were sacrificed.
PTZ doses were calculated according to the formula: PTZ dose [mg/kg]=(PTZ concentration [mg/ml]×infusion rate [ml/s]×infusion duration [s]×1000)/mouse weight [g]). All work solutions contained heparine (20 μl/ml).
All statistical analyses were performed using GraphPad Prism 5 software (GraphPad Software, Inc.). Values were presented as means±standard deviation (SD). […] For mouse experiments, significant differences between estimated time intervals prior to above-mentioned seizure stages were calculated using the unpaired Student's t-test.

[3] = system: 6 Hz corneal stimulation-induced seizures in mice; test: 6 Hz psychomotor seizure model of partial epilepsy; assay type: in vivo, mouse
Description: For assessing the anti-convulsant activity of ar-Tumerone, the 6 Hz psychomotor seizure model of partial epilepsy (Barton M. E. et al., 2001) was used, thereby applying the following stimulation parameters: 6 Hz, 0.2 ms rectangular pulse width, 3 s duration.
Every mouse (male NMRI+/−30 g) was administered the compound (ar-tumerone 50 mg/kg, 20 mg/kg, 1 mg/kg and 100 μg/kg) or vehicle (PEG 200:DMSO 1:1) via i.p. injection. After 30 minutes of incubation, seizures were induced via corneal stimulation using the Ugo-Basil device. Prior to the placement of corneal electrodes, a drop of 0.5% xylocaine was applied to the eyes of the animal. Animals were restrained manually and released immediately in a transparent plastic cage following the stimulation. Then, the animal was observed. The seizure was characterized by stun, forelimb clonus, twitching of vibrissae, straub-tail for at least 45 s. Protection was defined as the absence of a seizure. A minimum of six animals per dose was used. […] Negative control (only vehicle) and positive control (valproic acid 300 mg/kg) were included as well. As expected, 6 out of 6 mice treated with only vehicle were not protected and 6 out of 6 mice treated with valproic acid were protected.

[4] = 10 μg/mL, 1 hour pre-incubation, PTZ 20 mM, 30 min tracking
[5] = 46 μM, PTZ 20 mM, 30 min tracking

Compound: CCCC(CCC)C(=O)[O-].[Na+] [sodium valproate, reference compound]
- anticonvulsant activity (decrease of PTZ-induced seizure movements) ([1]; concentration not given): able to control seizures generation
- delay of seizure behaviors (PTZ tail infusion) ([2]; 50 mg/kg, tonic hindlimb extension p<0.01, death p<0.05): capable of delaying tonic hindlimb extension

Compound: O=C1NC(=O)C(c2ccccc2)(c2ccccc2)N1 [phenytoin, reference compound]
- anticonvulsant activity (decrease of PTZ-induced seizure movements) ([1]; 75 μg/ml, PTZ 20 mM, 30 min tracking): significant activity
- anticonvulsant activity (decrease of PTZ-induced seizure movements) ([1]; 252.26 μg/ml, PTZ 20 mM, 30 min tracking): significant activity

Compound: α-atlantone
- anticonvulsant activity (decrease of PTZ-induced seizure movements) ([1]; 5 μg/mL, 1 hour pre-incubation, PTZ 20 mM, 30 min tracking): Significant decrease of the seizures triggered by PTZ
- anticonvulsant activity (decrease of PTZ-induced seizure movements) [1, 4]: Significant decrease of the seizures triggered by PTZ
- anticonvulsant activity (decrease of PTZ-induced seizure movements) ([1]; 23 μM, PTZ 20 mM, 30 min tracking): anticonvulsant activity
- anticonvulsant activity (decrease of PTZ-induced seizure movements) [1, 5]: anticonvulsant activity

Compound: CC(C)=CC(=O)C[C@H](C)c1ccc(C)cc1 [ar-turmerone]
- anticonvulsant activity (decrease of PTZ-induced seizure movements) [1, 4]: Significant decrease of the seizures triggered by PTZ
- anticonvulsant activity (decrease of PTZ-induced seizure movements) [1, 5]: anticonvulsant activity
- required dose of PTZ to trigger all assessed events ([2]; 50 mg/kg infused, tonic hindlimb extension p<0.05, other events and death p<0.01): significant resistance to the generation of seizures
- PTZ dose for generating seizure behaviors ([2]; 200 mg/kg, ear, tail and myoclonic twitch, tonic hind limb extension and death (p<0.05)): significant PTZ dose increase
- mice protected from seizures ([3]; 100 μg/kg i.p., 30 minutes before stimulation, n=6): Six out of six
- mice protected from seizures ([3]; 1 mg/kg i.p., 30 minutes before stimulation, n=6): Six out of six
- mice protected from seizures ([3]; 20 mg/kg i.p., 30 minutes before stimulation, n=6): Six out of six
- mice protected from seizures ([3]; 50 mg/kg i.p., 30 minutes before stimulation, n=6): Six out of six

Compound: COc1cc(/C=C/C(=O)CC(=O)/C=C/c2ccc(O)c(OC)c2)ccc1O [curcumin, reference compound]
- anticonvulsant activity (decrease of PTZ-induced seizure movements) ([1]; concentration not given): potent activity in inhibiting PTZ-induced seizures

Compound: CN1C(=O)CN=C(c2ccccc2)c2cc(Cl)ccc21 [diazepam, reference compound]
- anticonvulsant activity (decrease of PTZ-induced seizure movements) ([1]; 1.42 μg/ml, PTZ 20 mM, 30 min tracking): decreased PTZ-induced movements
- anticonvulsant activity (decrease of PTZ-induced seizure movements) ([1]; 14.23 μg/ml, PTZ 20 mM, 30 min tracking): decreased PTZ-induced movements

Compound: CCCC(CCC)C(=O)O [valproic acid, reference compound]
- mice protected from seizures ([3]; 300 mg/kg, positive control): 6 out of 6
